Laboratory results published in patent US20040225172A1, “Use of ionic liquids to separate olefins, diolefins and aromatics” (NOVA Chemicals (International) S.A., priority 2002, published 2004).
Like-named read-outs stand apart in the source and are kept apart here. Each block holds one compound with its values, some of them ahead of it.

Key:
[1] = C5 hydrocarbon solubility in ionic liquid (volume change of hydrocarbon phase)
Procedure: The locations of all meniscuses were then recorded. […] The testing was conducted at ambient temperature.

[2] = Cyclo-C8 hydrocarbon solubility in ionic liquids
[3] = ambient temperature; for Propane absorbed (mol C3H8/L absorbent) / Propylene absorbed (mol C3H6/L absorbent): equilibrium
Procedure: The testing apparatus consists of two sample cylinders (one 1000 cc cylinder and one 150 cc cylinder) connected by ⅛-inch tubing with valves allowing for isolation of each cylinder. A digital pressure gauge indicates the larger cylinder pressure and the pressure of the system when the cylinders are not isolated.
To measure absorption, 50 mL of bmim^+ BF4^− absorbent was loaded into the smaller cylinder and the larger cylinder was pressurized with the hydrocarbon gas. The amount of gas absorbed by the sample of bmim^+BF4^− is proportional to the pressure drop that occurs when the sample is exposed to the test gas, and can be calculated knowing the internal volume of the closed system.
The sample was then exposed to the gas in the large 1000 cc cylinder as the valve separating the cylinders was opened. The initial pressure drop was recorded. The sample was stirred via magnetic stirrer. When the system came to equilibrium (no pressure changed for over 1 hour) the final absorption pressure was recorded and the cylinders were once again separated. This procedure could be repeated for different absorption pressures. Experiments were conducted at ambient temperature.
Between experimental runs, the absorbent was degassed by bubbling a nitrogen entrainment gas through the absorbent for 2 to 3 hours.

[4] = in bmim^+ BF4^− ionic liquid, ambient temperature

SMILES: CC=C(C)C [2-Methyl-2-Butene, 2-methyl-2-butene]
Selectivity over Isopentane [1, 4]: 10.6
Solubility (mol C5/L ionic liquid) [1, 4]: 0.360 mol C5/L ionic liquid

Solubility in mbpy^+ BF4^− (mol C8/L ionic liquid) [2]: 0.551 mol C8/L ionic liquid
SMILES: CCc1ccccc1 [Ethylbenzene, ethylbenzene]

Solubility (mol C5/L ionic liquid) [1]: 0.034 mol C5/L ionic liquid
SMILES: CCC(C)C [Isopentane, isopentane]

SMILES: C=CC(=C)C [Isoprene, isoprene]
Selectivity over Isopentane [1, 4]: 18.0
Solubility (mol C5/L ionic liquid) [1, 4]: 0.611 mol C5/L ionic liquid

C3H6:C3H8 Selectivity ([3]; 50.0 psig): 3.55
Propane absorbed (mol C3H8/L absorbent) ([3]; 50.0 psig): 0.011 mol C3H8/L absorbent
Propylene absorbed (mol C3H6/L absorbent) ([3]; 50.0 psig): 0.039 mol C3H6/L absorbent
C3H6:C3H8 Selectivity ([3]; 72.6 psig): 9.92
Propane absorbed (mol C3H8/L absorbent) ([3]; 72.6 psig): 0.012 mol C3H8/L absorbent
Propylene absorbed (mol C3H6/L absorbent) ([3]; 72.6 psig): 0.119 mol C3H6/L absorbent
SMILES: CCCCn1cc[n+](C)c1.F[B-](F)(F)F [bmim^+ BF4^−, 1-butyl-3-methylimidazolium tetrafluoroborate]
